Conditions: in water

solubility (mole fraction) (278.15 K) | solubility (mole fraction) (283.15 K) | solubility (mole fraction) (288.15 K) | solubility (mole fraction) (293.15 K) | solubility (mole fraction) (298.15 K) | solubility (mole fraction) (303.15 K) | solubility (mole fraction) (308.15 K) | solubility (mole fraction) (313.15 K) | solubility (mole fraction) (318.65 K) | solubility (mole fraction) (323.15 K) | solubility (mole fraction) (328.15 K) | solubility (mole fraction) (333.15 K) | solubility (mole fraction) (338.15 K) | SMILES
0.112 | 0.121 | 0.132 | 0.145 | 0.158 | 0.168 | 0.181 | 0.198 | 0.209 | 0.231 | 0.248 | 0.269 | 0.294 | O=C(O)CC(O)C(=O)O (stereo unspecified)
0.0673 | 0.0779 | 0.0869 | 0.0969 | 0.111 | 0.124 | 0.142 | 0.154 | 0.174 | 0.184 | 0.199 | 0.218 | 0.232 | O=C(O)/C=C\C(=O)O

From BigSolDB 2.1
